This is an account of results in US20040137514A1, “Use of antibodies against specific mhc-peptide complexes” (priority 2000, published 2004).

The test system of one assay is T cells of RA patients. Conditions: cited from earlier work.
The test system of the next assay is BLCL. The experiment in a line: FACS control: peptide binding to BLCL. The following applies: data not shown. Also on record: species or system human. The method, then: Briefly, 10^6 BLCL were incubated with 40 μg peptide in 500 μl DMEM/HAM's F12 or blank medium for 4 h at 37° C. After this incubation, the cells were washed with PBS, 2% FCS, 0.02% sodiumazide. Approximately 2×10^5 cells were incubated for 1 h, 4° C. with 130 μl MAb-containing hybridoma supernatant plus 20 μl PBS, 20% FCS, 0.02% sodiumazide. After washing the cells twice with PBS, 2% FCS, 0.02% sodiumazide, they were incubated for 1 h, 4° C. with 50 μl PBS, 20% FCS, 0.02% sodiumazide plus 10 μl Goat anti-mouseIg/FITC (Beckton & Dickinson). Subsequently, the cells were washed three times with PBS, 2% FCS, 0.02% sodiumazide and finally resuspended in 400 μl PBS, 2% p-formaldehyde. As a control for peptide binding, cells were incubated with biotinylated HC gp39263-275 and stained with streptavidin/PE (Beckton & Dickinson). As a control for HLA-DR expression, staining was performed with anti-HLA/DR, L243 (purified Ig from hybridoma ATCC HB 55). Stained cells were analyzed with the FACScan™ (Beckton & Dickinson). In all cases, forward and side scatter analysis was applied to eliminate dead cells and debris from further analysis.
These homozygous BLCL were loaded with HC gp-39263-275 and subsequently stained with ORG38948 12A. In a series of experiments, ORG38948 12A stains HC gp-39^263-275 in the context of both DRB1*0401 and DRB1*0407 (Table V). […]

The conditions of assay [1]: intranasal administration prior to immunization; cited from earlier work.
The conditions of assay [2]: BALB/c mice; cited from earlier work.
The conditions of assay [3]: DBA/1 mice, semi-therapeutic regime; cited from earlier work.

For the substance “326-338: peptide 326-338 of HC gp-39 (VGYDDQESVKSKV; HC gp-39 AA 326-338; listed as Homo sapiens)”, in the assay on T cells of RA patients, the “recognition by T cells of RA patients” value is reported as “recognized”.

For the substance RSFTLASSETG, the “binding of peptide to the BLCL” value in the assay on BLCL is “binds to the BLCL”.

“human cartilage glycoprotein-39 [HC gp-39]”: in assay [1], the DTH responses result is reported as “complete abrogation of DTH responses” and the disease development result is recorded as “protection from or delayed onset of the disease”. Besides, the outcome of immunisation in assay [2] was “development of a chronic, relapsing arthritis”. Further, the “incidence and severity of collagen type II induced arthritis” value in assay [3] was “could reduce”.
